# Data from US20240067660A1, “MACROCYCLIC SPIROCYCLE DERIVATIVES AS MCL-1 INHIBITORS” (Janssen Pharmaceutica NV, priority 2019, published 2024).
# Read-outs that look alike come from different tables or passages of the source.
# Tested on: MOLP8 cells
# Assay: MOLP8 CellEvent Caspase-3/7 Green IncuCyte live-cell apoptosis assay
# Type: cell-based, human
# Procedure: MCL-1 is a regulator of apoptosis and is highly over-expressed in tumor cells that escape cell death. The assay evaluates the cellular potency of small-molecule compounds targeting regulators of the apoptosis pathway, primarily MCL-1, Bfl-1, Bcl-2, and other proteins of the Bcl-2 family. Protein-protein inhibitors disrupting the interaction of anti-apoptotic regulators with BH3-domain proteins initiate apoptosis.
# Activation of the apoptotic pathway was measured using the CellEvent™ Caspase-3/7 Green ReadyProbes™ Reagent (Thermo Fisher C10423, C10723). This assay produces a green fluorescent stain in cells that enter the apoptosis pathway. CellEvent® Caspase-3/7 Green reagent is a four amino acid peptide (DEVD) conjugated to a nucleic acid-binding dye that is non-fluorescent when not bound to DNA. The CellEvent® Caspase-3/7 Green reagent is intrinsically non-fluorescent, as the DEVD peptide inhibits binding of the dye to DNA. Upon activation of caspase-3/7 in apoptotic cells, the DEVD peptide is cleaved and the free dye can bind DNA, generating a bright green fluorescence. The activation of Caspase-3 and Caspase-7 is downstream of inhibition of MCL-1 or other apoptosis inhibiting proteins in cell lines that are dependent on them.
# The live-cell readout on the IncuCyte permits tracking over time of the Caspase activation. […] The IncuCyte readout also allows one to normalize for cell number, as the suspension cells are hard to distribute evenly.
# Signals were measured every 2 h for a duration of 22 h. The ratio of the Caspase mask to the Confluence mask, per image, as raw data, was calculated and the kinetic trace for every well was exported to Genedata Screener for analysis.
# In Genedata Screener values for 6 h, 12 h, and 22 h from the kinetic traces were extracted. The values were normalized against negative controls (untreated cells). A standard dose-response analysis was performed on the normalized data.
# The following data was reported at each of the following three aforementioned time points: (a) The dose-response curve, (b) The qAC50 and qAC50 Mode, and (c) Max Activity.
# Cells were maintained in culture medium containing 10% Heat Inactivated (HI) FBS, 2 mM L-Glutamine and 50 μg/mL Gentamycin phenol red free RPMI-1640. Cells were split at 0.4 million/mL twice a week.
# On Day 1, plates containing individual wells with test compounds at 10 mM concentration, 150 nL per well. The final concentrations range from […] compound (and no compound control) and compounds were thawed at room temperature for 1 hour. 25 μl of prewarmed medium was added into each well by multidrop (column 1, 3-22, 24), followed by addition of DMSO control (0.6% DMSO) in column 2. The plate was sealed using Breathe-Easy® sealing membrane and shaken for 30 min at room temperature to dissolve the test compound(s) in medium. The plate was then kept in the incubator for 1 hour at 37° C., 5% CO2.
# MOLP8 cells in medium at […] (20000/50 μl final in assay) were prepared with CellEvent™ Caspase-3/7 Green Detection Reagent at 4 μM (2 μM final in assay). Once prepared, the cells were added to the test compound plate in an amount of 20000 and the plate was immediately placed in the IncuCyte and imaging started using following settings: 10× objective, 2 s exposure time in green channel, interval of 2 h, acquisition stopped after 22 h.
# For analysis in IncuCyte, a Basic Analysis protocol was defined to calculate the “confluence” and “caspase” areas from the “Phase” and “green” images, respectively, as follows: (a) Confluence: Segmentation Adjustment 1, Hole Fill 0, Adjust Size −2, No filters (b) Caspase: Top-Hat segmentation, Radius 10, Threshold 0.3 GCU, Edge Split On with sensitivity 0, Hole Fill 0, Adjust Size 1, and filter on a minimum Area of 20 μm^2. The analyzer is trained on a sufficient number of positive and negative control wells, as well as compound treated wells, verifying that the “confluence” layer detects both live and dead (condensed) cells. […]
# [1] = Homo sapiens, MOLP-8, 6 h, 6 h, read-out: MOLP8 Caspase 3/7 AC50 at 6 h
# [2] = Homo sapiens, MOLP-8, 12 h, 12 h, read-out: MOLP8 Caspase 3/7 AC50 at 12 h
# [3] = Homo sapiens, MOLP-8, 22 h, 22 h, read-out: MOLP8 Caspase 3/7 AC50 at 22 h
structure (smiles),measurement,setting,value
"COCC1/C=C/C[C@H](C)[C@@H](C)S(=O)(=O)NC(=O)c2ccc3c(c2)N(C[C@@H]2CCCN12)C[C@@]1(CCCc2cc(Cl)ccc21)CO3 (single isomer, unassigned) [Compound 8]",AC50,[1],2390 nM
same,AC50,[2],2490 nM
same,AC50,[3],2840 nM
"C[C@@H]1[C@@H](C)C/C=C/C(CO)N2CC[C@H]2CN2C[C@@]3(CCCc4cc(Cl)ccc43)COc3ccc(cc32)C(=O)NS1(=O)=O (single isomer, unassigned) [Compound 10]",AC50,[1],3070 nM
same,AC50,[2],3240 nM
same,AC50,[3],3430 nM
COC[C@H]1/C=C/C[C@@H](C)[C@@H](C)S(=O)(=O)NC(=O)c2ccc3c(c2)N(C[C@@H]2CCN21)C[C@@]1(CCCc2cc(Cl)ccc21)CO3 [Compound 4],AC50,[1],~1310 nM
same,AC50,[2],1200 nM
same,AC50,[3],~1380 nM
COC[C@@H]1/C=C/C[C@@H](C)[C@@H](C)S(=O)(=O)NC(=O)c2ccc3c(c2)N(C[C@@H]2CCN21)C[C@@]1(CCCc2cc(Cl)ccc21)CO3 [Compound 7],AC50,[1],2160 nM
same,AC50,[2],1720 nM
same,AC50,[3],1900 nM
C[C@@H]1[C@@H](C)C/C=C(\F)[C@H](CO)N2CC[C@H]2CN2C[C@@]3(CCCc4cc(Cl)ccc43)COc3ccc(cc32)C(=O)NS1(=O)=O [Compound 9],AC50,[1],400 nM
same,AC50,[2],400 nM
same,AC50,[3],400 nM
C[C@@H]1[C@@H](C)C/C=C(\F)[C@H](COc2ccccn2)N2CC[C@H]2CN2C[C@@]3(CCCc4cc(Cl)ccc43)COc3ccc(cc32)C(=O)NS1(=O)=O [Compound 11],AC50,[1],2380 nM
same,AC50,[2],2320 nM
same,AC50,[3],2520 nM
C[C@@H]1[C@@H](C)C/C=C(\F)[C@H](COc2ccccn2)N2CC[C@@H]2CN2C[C@@]3(CCCc4cc(Cl)ccc43)COc3ccc(cc32)C(=O)NS1(=O)=O [Compound 12],AC50,"6 h, read-out: MOLP8 Caspase 3/7 AC50 at 6 h",1220 nM
same,AC50,"12 h, read-out: MOLP8 Caspase 3/7 AC50 at 12 h",1120 nM
same,AC50,"22 h, read-out: MOLP8 Caspase 3/7 AC50 at 22 h",1330 nM
COC[C@H]1/C(F)=C/C[C@H](C)[C@@H](C)S(=O)(=O)NC(=O)c2ccc3c(c2)N(C[C@@H]2CCN21)C[C@@]1(CCCc2cc(Cl)ccc21)CO3 [Compound 13],AC50,[1],520 nM
same,AC50,[2],530 nM
same,AC50,[3],560 nM
CC(C)COC[C@H]1/C(F)=C/C[C@H](C)[C@@H](C)S(=O)(=O)NC(=O)c2ccc3c(c2)N(C[C@@H]2CCN21)C[C@@]1(CCCc2cc(Cl)ccc21)CO3 [Compound 15],AC50,[1],2430 nM
same,AC50,[2],2400 nM
same,AC50,[3],2420 nM
CCOC[C@H]1/C(F)=C/C[C@H](C)[C@@H](C)S(=O)(=O)NC(=O)c2ccc3c(c2)N(C[C@@H]2CCN21)C[C@@]1(CCCc2cc(Cl)ccc21)CO3 [Compound 16],AC50,[1],450 nM
same,AC50,[2],450 nM
same,AC50,[3],480 nM
C[C@@H]1[C@@H](C)C/C=C(\F)[C@H](COCC(=O)O)N2CC[C@H]2CN2C[C@@]3(CCCc4cc(Cl)ccc43)COc3ccc(cc32)C(=O)NS1(=O)=O [Compound 17],AC50,[1],11100 nM
same,AC50,[2],10000 nM
same,AC50,[3],9610 nM
C[C@@H]1[C@@H](C)C/C=C(\F)[C@H](COCC(=O)N2CCOCC2)N2CC[C@H]2CN2C[C@@]3(CCCc4cc(Cl)ccc43)COc3ccc(cc32)C(=O)NS1(=O)=O [Compound 18],AC50,[1],660 nM
same,AC50,[2],570 nM
same,AC50,[3],600 nM
C[C@@H]1[C@@H](C)C/C=C(\F)[C@H](COCC(=O)N2CC(F)(F)C2)N2CC[C@H]2CN2C[C@@]3(CCCc4cc(Cl)ccc43)COc3ccc(cc32)C(=O)NS1(=O)=O [Compound 19],AC50,[1],390 nM
same,AC50,[2],400 nM
same,AC50,[3],430 nM
COCCCOC[C@H]1/C(F)=C/C[C@H](C)[C@@H](C)S(=O)(=O)NC(=O)c2ccc3c(c2)N(C[C@@H]2CCN21)C[C@@]1(CCCc2cc(Cl)ccc21)CO3 [Compound 22],AC50,[1],550 nM
same,AC50,[2],570 nM
same,AC50,[3],620 nM
C[C@@H]1[C@@H](C)C/C=C(\F)[C@H](COCCC2CCOCC2)N2CC[C@H]2CN2C[C@@]3(CCCc4cc(Cl)ccc43)COc3ccc(cc32)C(=O)NS1(=O)=O [Compound 23],AC50,[1],1110 nM
same,AC50,[2],1040 nM
same,AC50,[3],1150 nM
Cc1nc(COC[C@H]2/C(F)=C/C[C@H](C)[C@@H](C)S(=O)(=O)NC(=O)c3ccc4c(c3)N(C[C@@H]3CCN32)C[C@@]2(CCCc3cc(Cl)ccc32)CO4)no1 [Compound 24],AC50,[1],390 nM
same,AC50,[2],410 nM
same,AC50,[3],400 nM
C[C@@H]1[C@@H](C)C/C=C(\F)[C@H](COCCCN2CCOCC2)N2CC[C@H]2CN2C[C@@]3(CCCc4cc(Cl)ccc43)COc3ccc(cc32)C(=O)NS1(=O)=O [Compound 25],AC50,[1],360 nM
same,AC50,[2],360 nM
same,AC50,[3],360 nM
C[C@@H]1[C@@H](C)C/C=C(\F)[C@H](COCC2CCC2)N2CC[C@H]2CN2C[C@@]3(CCCc4cc(Cl)ccc43)COc3ccc(cc32)C(=O)NS1(=O)=O [Compound 26],AC50,[1],3540 nM
same,AC50,[2],3570 nM
same,AC50,[3],3060 nM
C[C@@H]1[C@@H](C)C/C=C(\F)[C@H](CF)N2CC[C@H]2CN2C[C@@]3(CCCc4cc(Cl)ccc43)COc3ccc(cc32)C(=O)NS1(=O)=O [Compound 31],AC50,[1],1090 nM
same,AC50,[2],900 nM
same,AC50,[3],940 nM
